Results published in ChEMBL document CHEMBL1157539, “Thousands of chemical starting points for antimalarial lead identification” (Nature, 2010).
Where a name gives a salt, the structure may show the parent alone.

tested on: Plasmodium falciparum; assay: GSK_TCMDC: Inhibition of Plasmodium falciparum 3D7 in whole erythrocytes, using parasite LDH activity as an index of growth.; type: functional, organism-based; conditions: Plasmodium falciparum, 3D7

| Compound | XC50 [nM] |
| --- | --- |
| Cc1cccc2nc(-c3ccc(-c4ccc(CNCCCN5CCCC5=O)cc4)s3)[nH]c12 | 749 |
| N#Cc1ccc(C(=O)Nc2cccc(-c3ccc(CN4CCCC4)cc3)c2)cc1 | 723 |
| COc1ccc2nccc([C@@H](O)CN3CCC(NC(=O)c4ccc(C5(C(F)(F)F)N=N5)cc4)CC3)c2c1 | 931 |
| COc1cc2nc(C)nc(Nc3cccc(Br)c3)c2cc1OC | 356 |
| N#Cc1ccc2[nH]cc(-c3cn4cc(SC5CCCC5)ccc4n3)c2c1 | 942 |
| CC(C)c1ccc(NC(=O)c2ccc(NCCCN(C)Cc3ccccc3)c([N+](=O)[O-])c2)cc1 | 683 |
| O=C(NCC1CCC(C(=O)NCc2cccc(C(F)(F)F)c2)CC1)c1ccc(O)c(-c2ccc(Cl)c(Cl)c2)c1 (stereo unspecified) | 711 |
| N#Cc1cccc(Nc2cc(C(F)(F)F)nc(Nc3ccccc3)n2)c1 | 1440 |
| C[C@H](Cc1ccc(S(=O)(=O)c2ccc(C[C@@H](C)NC[C@H](O)c3cccc(Cl)c3)cc2)cc1)NC[C@H](O)c1cccc(Cl)c1 | 258 |
| O=C(c1cc2nc3c(c(C(F)(F)F)n2n1)CCc1ccccc1-3)N1CCN2CCCC2C1 (stereo unspecified) | 947 |
| COc1cc2nc(N3CCN(C(=O)c4cccc(I)c4)CC3)nc(N)c2cc1OC | 1320 |
| Fc1ccc(-c2nc(NCc3cccc(C(F)(F)F)c3)nn2-c2cccc(C(F)(F)F)c2)cc1C(F)(F)F | 1050 |
| CC(CO)(CO)NCc1cc2c3ccccc3c(CNC(C)(CO)CO)cc2c2ccccc12 | 723 |
| CCNc1cc(C(=O)N[C@@H](Cc2ccccc2)[C@H](O)CNCC(C)C)cc(N2CCCC2=O)c1 | 485 |
| OCCN1CCN(Cc2ccc(-c3ccc(-c4nc5cc(C(F)(F)F)ccc5[nH]4)s3)cc2)CC1 | 379 |
| CN1CCC(Oc2ccc(NC(=O)c3ccc4c(=O)n(Cc5ccccc5)cnc4c3)cc2Cl)CC1 | 954 |
| CN1CCN(c2ccnc3ccc(NC(=O)Cc4ccc(-c5ccncc5)c5ccccc45)cc23)CC1 | 203 |
| O=C(NC1CCCC1)c1ccc(N2CCC(NCc3cc4cc(Cl)ccc4[nH]3)CC2)cc1 | 1220 |
| C[C@H](Cc1ccc(OCCCCCCCOc2ccc(C[C@@H](C)NC[C@H](O)c3cccc(Cl)c3)cc2)cc1)NC[C@H](O)c1cccc(Cl)c1 | 189 |
| N#CN1CC[C@@H](NS(=O)(=O)Cc2ccc(Cl)c(Cl)c2)C1 | 532 |
| CN1CCN(CCCN(Cc2ccc(-c3ccc(CNCc4ccc5c(c4)OCO5)cc3)cc2)C(=O)CCC2CCCC2)CC1 | 952 |
| CCN(CC)S(=O)(=O)c1ccc(C(=O)Oc2ccccc2N(Cc2ccc(OC)cc2)C2=NS(=O)(=O)c3ccccc32)cc1 | 585 |

| Compound | XC50 [nM] |
| --- | --- |
| Clc1ccc(Nc2nc3ccc(Cl)cc3nc2Nc2ccc(Cl)cc2)cc1 | 133 |
| COc1cc(NC(=O)/C=C/c2ccccc2Cl)cc(OCCN2CCC(O)(c3ccccc3)CC2)c1 | 174 |
| CC(C)(C)C(=O)Oc1ccc(CC2NCCc3cc(OC(=O)C(C)(C)C)c(OC(=O)C(C)(C)C)cc32)cc1OC(=O)C(C)(C)C (stereo unspecified) | 419 |
| Cc1ccc(C(=O)Nc2ccc(Nc3ccnc4cc(-c5ccccn5)ccc34)cc2O)cc1 | 111 |
| COCCOc1cccc(CN2CCC(c3cc4nc(C)cc(C(F)(F)F)n4n3)C2)c1 (stereo unspecified) | 1330 |
| CCCCCCCc1c2c(C)c(C(=O)OCC)nc-2cc2n1CC(C)=C2C | 1140 |
| CC(C)CN1CCCN(Cc2cccc(NC(=O)c3cc4ccccc4s3)c2)CC1 | 1770 |
| CCN(CCO)CCCC(C)Nc1ccnc2cc(Cl)ccc12 (stereo unspecified) [HYDROXYCHLOROQUINE SULFATE] | 762 |
| COc1ccccc1CCNC(=O)c1cnc(N2CCN(c3ccncc3)CC2)c(Cl)c1 | 1150 |
| Cc1cccc(-c2nc3cc(NC(=O)c4ccc([N+](=O)[O-])o4)ccc3o2)c1 | 876 |
| COc1cccc(C(=O)Nc2ccc(Nc3nc(C)cc(N4CCCCC4)n3)cc2)c1OC | 1020 |
| c1cc(CNCCc2ccncc2)cc(-c2ccc(-c3nc4ccccc4[nH]3)cc2)c1 | 146 |
| CN(C)CCN(C)Cc1ccc(-c2ccc3c(Nc4ccc(Cl)cc4F)ccnc3c2)o1 | 360 |
| CCCCCC(C)C(C)c1cc(O)c2c3c(c(=O)oc2c1)CN(Cc1ccccc1)CC3 (stereo unspecified) | 605 |
| Cc1ccc(C2CCN(CCCCNC(=O)c3ccc(NC(=O)c4ccc(Cl)cc4)cc3)CC2)c(OCC(F)(F)F)c1 | 284 |
| Cc1ccc(NC(=O)N2CCC(n3c(-c4ccccc4)nc4cccnc43)CC2)cc1F | 534 |
| Cc1ccccc1C(O)CNc1ccnc(Nc2cccc(C#N)c2)n1 (stereo unspecified) | 875 |
| CC1(C)N=C(NC(=O)Nc2ccc([N+](=O)[O-])cc2)N=C(N)N1OCc1cccc2ccccc12 | 59.5 |
| Cn1cc(C2CCN(CCCCNC(=O)c3ccc(C(=O)Nc4ccc(C#N)cc4)cc3)CC2)c2ccccc21 | 724 |
| O=C(NCC1CCN(Cc2cccc(C(F)(F)F)c2)C1)c1cc(-c2cccc(Cl)c2)cs1 (stereo unspecified) | 803 |
| COC(=O)c1ccc2nc(-c3ccc(/C=C/C(=O)NC4CCN(Cc5ccccc5)CC4)cc3)[nH]c2c1 | 711 |
| COc1cc(/C=C/C(=O)NCC(CCNc2cc(=O)c3ccccc3[nH]2)NCc2cc(Br)cc(Br)c2)cc(OC)c1 (stereo unspecified) | 915 |

| Compound | XC50 [nM] |
| --- | --- |
| CCOc1ccc(-c2nonc2NC(=O)c2ccc(OC(C)C)cc2)cc1OCC | 601 |
| CCOc1cc(C)ccc1C1CCN(CCCCNC(=O)c2ccc(-c3ccc(C(F)(F)F)cn3)cc2)CC1 | 787 |
| COc1cccc(NC(=O)c2nc(N3CCN(c4ccncc4)CC3)ccc2Cl)c1 | 924 |
| O=C(/C=C/c1ccc(Cl)c(Cl)c1)NCCCCCN1CCC(n2c(=O)[nH]c3ccccc32)CC1 | 869 |
| CCN1CCC(N(Cc2ccc(-c3ccc(Cl)cc3)cc2)C(=O)Cn2c(CCc3cccc(F)c3F)cc(=O)c3ccccc32)CC1 | 703 |
| CS(=O)(=O)Nc1ccc2[nH]cc(C3CCN(CC(O)C4CCN(C(=O)/C=C/c5ccc(Cl)c(Cl)c5)CC4)CC3)c2c1 (stereo unspecified) | 1760 |
| CN1CCN(CC(=O)Nc2ccc(-c3ccc(-c4nc5cc(C(F)(F)F)ccc5[nH]4)s3)cc2)CC1 | 569 |
| Oc1cc(-c2cccc(C(F)(F)F)c2)nc(Nc2ccc(Cl)c(Cl)c2)n1 | 759 |
| FC(F)(F)c1ccc2[nH]c(-c3cccc(-c4ccc(CNCCN5CCNCC5)cc4)c3)nc2c1 | 862 |
| Cn1cccc1C(=O)Nc1cccc(-c2nn3ccccc3c2-c2ccnc(Nc3ccc4c(c3)OCCO4)n2)c1 | 1350 |
| O=C(Cc1ccccc1)NC(c1ccco1)c1cc(Cl)c2cccnc2c1O (stereo unspecified) | 691 |
| COc1ccc(C(=O)Cn2nc(-c3ccc(Cl)cc3)ccc2=O)c(OC)c1 | 498 |
| CCOc1cc(Cc2cnc(N)nc2N)cc(OCC)c1OCC | 284 |
| COC(=O)c1cc2cccc(NC[C@@H](C)NC[C@H](O)c3cccc(Cl)c3)c2[nH]1 | 631 |
| CCc1ccc(OCCCON2C(=N)N=C(N)NC2(C)C)cc1 | 3.2 |
| CN(C)CCOc1cc(NC(=O)Nc2ccc(Cl)cc2C(F)(F)F)ccc1I | 930 |
| COc1ccc2nccc([C@@H](O)CN3CCC(NS(=O)(=O)c4cc(Br)c(Br)s4)CC3)c2c1 | 851 |
| CCOC(=O)C(NC(=O)c1ccc([N+](=O)[O-])o1)C(C)C (stereo unspecified) | 1060 |
| CC(C(=O)NC1CCN(c2ccnc(Nc3ccc(F)cc3)n2)C1)c1ccc(Cl)cc1 (stereo unspecified) | 860 |
| O=C(/C=C/c1ccc(C(F)(F)F)cc1)NCCCCCN1CCCN(C(=O)Nc2ccc(F)c(Cl)c2)CC1 | 368 |
| CO/C(=C\C=C\c1cc2cc(Cl)c(Cl)cc2[nH]1)C(=O)NCCCN1CCN(c2cccc(OCC(=O)Nc3ccccc3)c2)CC1 | 504 |
| COc1ccc2nccc([C@@H](O)CNCCCN(C)CCOc3cc(F)cc(F)c3)c2c1 | 789 |
